From article PMC9862026, “In Vivo Toxicity, Redox-Modulating Capacity and Intestinal Permeability of Novel Aroylhydrazone Derivatives as Anti-Tuberculosis Agents” (Pharmaceutics, 2022)
pIC50: −log10 of the molar value. Values after ≈ are worked out from the molar mass of the structure shown. “Also recorded” adds a separate entry of the source. Where two headings read alike, the source gives them in different places. Marks after values point to notes of the source that are not given here.

Columns and labels:
male Jcl:ICR mice [1] = test: Sub-acute toxicity, 14 days oral: serum biochemical parameters; type: in vivo; conditions: serum
Protocol: (§1) The sub-acute toxicity effects were assessed after repeated (14 days) oral administration to male mice. […] The experiments were performed with male Jcl: ICR mice at the same age of 6 weeks and weighing approximately 30–35 g, in which the substances were administered daily for 14 days orally with a gastric tube at approximately the same time of the day. The compounds were solubilized with Tween 80 (0.1%) in distilled water and administered orally in a volume of 0.1 mL per 10.0 g. Animals were observed daily for behavioral changes and signs of toxicity. All results were compared with the positive control isoniazid (INH).
(§2) Serum biochemical parameters were assessed as follows.

[2] = tested on: GSH in the liver homogenate; test: Total glutathione in liver homogenate; type: in vivo, mice; conditions: both doses (125 and 250 mg/kg) oral, 14 days
Protocol: as §2
According to Rahman et al. total glutathione (tGSH) concentration was determined. In the reaction between GSH and 5,5′-dithiobis-2-nitrobenzoic acid (DTNB), the rate of formation of colored substance, 5′-thio-2-nitrobenzoic acid (TNB), is proportional to the concentration of tGSH in the sample. The maximal absorption of colored TNB is at 412 nm. The concentration of tGSH was calculated using oxidized glutathione as a reference standard and was expressed as ng/mg protein.

male Jcl:ICR mice [3] = test: Sub-acute toxicity, 14 days oral: body weight; type: in vivo; conditions: 125 mg/kg oral, end of 14-day period
Protocol: as §1, §2

ABTS•+ assay = conditions: 15 min at 37 °C
Protocol: ABTS (2,2′-azino-bis (3-ethylbenzthiazoline-6-sulphonic acid) (7.0 mM) was mixed with potassium persulfate (2.45 mM) to obtain the cationic radical (ABTS•+) The solution was diluted in methanol (2 mL ABTS•+ + 58 mL methanol). The absorption at 743 nm of the resulting working solution was 1.1 ± 0.02 AU. Then, 1.425 mL of ABTS•+ working solution was added to 75 μL of the test drugs, and the absorption at 743 nm was measured after 15 min of incubation at 37 °C against methanol. A blank containing 75 μL of water instead of the test extract also was measured against methanol.
(§3) All data are presented as IC50, which gave 50% inhibition of the activities and compared against the activity of Trolox—a common antioxidant, at the same concentrations.

[4] = tested on: M. tuberculosis H37Rv reference strain; conditions: ref [22]; cited from earlier work
female Jcl:ICR mice = conditions: i.p.; for Lethality: female mice
HEK-293T = conditions: cited from earlier work
male Jcl:ICR mice [5] = test: Sub-acute toxicity, 14 days oral: complete blood count; type: in vivo
Protocol: as §1, §2

DPPH assay = conditions: 0.1 mM DPPH in methanol, 30 min
Protocol: DPPH (2,2′-diphenyl-1-picrylhydrazyl radical) assay analysis of pure compounds was conducted by the method described by Brand-Williams et al.. First, 500 μL of the test solutions were added to 500 μL of a freshly prepared solution of 0.1 mM DPPH in methanol and incubated in the dark for 30 min. Then the absorbance at 517 nm (A517) was measured against a mixture of DPPH solution and methanol (1:1) as a control.
as §3

[6] = tested on: Glutathione peroxidase in the liver supernatant; test: Glutathione peroxidase activity in liver supernatant; type: in vivo, mice; conditions: 125 and 250 mg/kg oral, 14 days; vs controls
Protocol: as §2
The Glutathione Peroxidase Cellular Activity Assay Kit (Cat. No. CGP1) and Glutathione Reductase Assay Kit (Cat. No. GRSA) were used to measure the activities of glutathione-related enzymes.

COc1ccc2[nH]cc(C=NNC(=O)c3ccco3)c2c1 [3b, N′-[(5-methoxy-1H-indol-3-yl)methylidene]furan-2-carbohydrazide]
ALAT (male Jcl:ICR mice [1]; 125 mg/kg oral): 77.2 ± 2.8 *^+ U/L
ALB (male Jcl:ICR mice [1]; 125 mg/kg oral): 28.5 ± 3.3 ^+ g/L
ASAT (male Jcl:ICR mice [1]; 125 mg/kg oral): 112.1 ± 4.4 U/L
CREAT (male Jcl:ICR mice [1]; 125 mg/kg oral): 88.2 ± 3.1 ^+ µmol/L
D-Bil (male Jcl:ICR mice [1]; 125 mg/kg oral): 5.1 ± 0.23 ^+ µmol/L
GLU (male Jcl:ICR mice [1]; 125 mg/kg oral): 6.8 ± 0.22 mmol/L
T-Bil (male Jcl:ICR mice [1]; 125 mg/kg oral): 7.8 ± 0.23 ^+ µmol/L
TP (male Jcl:ICR mice [1]; 125 mg/kg oral): 56.6 ± 4.2 ^+ g/L
UA (male Jcl:ICR mice [1]; 125 mg/kg oral): 199 ± 14.6 µmol/L
UREA (male Jcl:ICR mice [1]; 125 mg/kg oral): 8.7 ± 0.26 ^+ mmol/L
ALAT (male Jcl:ICR mice [1]; 250 mg/kg oral): 71.2 ± 1.9 *^+ U/L
ALB (male Jcl:ICR mice [1]; 250 mg/kg oral): 28.2 ± 2.8 g/L
ASAT (male Jcl:ICR mice [1]; 250 mg/kg oral): 110 ± 3.1 U/L
CREAT (male Jcl:ICR mice [1]; 250 mg/kg oral): 92.2 ± 4.4 ^+ µmol/L
D-Bil (male Jcl:ICR mice [1]; 250 mg/kg oral): 3.8 ± 0.42 ^+ µmol/L
GLU (male Jcl:ICR mice [1]; 250 mg/kg oral): 7.0 ± 0.16 mmol/L
T-Bil (male Jcl:ICR mice [1]; 250 mg/kg oral): 8.1 ± 0.32 ^+ µmol/L
TP (male Jcl:ICR mice [1]; 250 mg/kg oral): 52.2 ± 5.1 ^+ g/L
UA (male Jcl:ICR mice [1]; 250 mg/kg oral): 201.3 ± 12 µmol/L
UREA (male Jcl:ICR mice [1]; 250 mg/kg oral): 8.4 ± 0.23 ^+ mmol/L
level of GSH in liver homogenate [2]: did not significantly increase the level of GSH
Body weight gain compared to the beginning of the experimental period (male Jcl:ICR mice [3]): 44%
ABTS Scavenging, IC50 (ABTS•+ assay): 40.35 * mg/mL
MIC [4]: 0.4412 µM (≈ 0.125 µg/mL)
Lethality (female Jcl:ICR mice; 500 mg/kg b.w.): 0/3
Lethality (female Jcl:ICR mice; 1000 mg/kg b.w.): 0/3
Lethality (female Jcl:ICR mice; 1500 mg/kg b.w.): 0/3
Lethality (female Jcl:ICR mice; 2000 mg/kg b.w.): 0/3
Symptoms before Death Occur (female Jcl:ICR mice; 3000 mg/kg b.w.): Impaired coordination, rapid breathing, clonic seizures, death
Time of Occurrence of Fatal Outcome (female Jcl:ICR mice; 3000 mg/kg b.w.): After 3 h
pIC50 (HEK-293T): 3.55
HCT (male Jcl:ICR mice [5]; 125 mg/kg oral): 39.6 ± 0.8 ^+ %
Hgb (male Jcl:ICR mice [5]; 125 mg/kg oral): 132.2 ± 4.2 ^+ g/L
PLT (male Jcl:ICR mice [5]; 125 mg/kg oral): 729 ± 203 10^9/L
RBC (male Jcl:ICR mice [5]; 125 mg/kg oral): 7.21 ± 0.16 ^+ × 10^12/L
WBC (male Jcl:ICR mice [5]; 125 mg/kg oral): 8.2 ± 0.28 *^+ × 10^9/L
HCT (male Jcl:ICR mice [5]; 250 mg/kg oral): 40.1 ± 1.2 ^+ %
Hgb (male Jcl:ICR mice [5]; 250 mg/kg oral): 130.2 ± 3.7 ^+ g/L
PLT (male Jcl:ICR mice [5]; 250 mg/kg oral): 864 ± 212 10^9/L
RBC (male Jcl:ICR mice [5]; 250 mg/kg oral): 7.62 ± 0.24 ^+ × 10^12/L
WBC (male Jcl:ICR mice [5]; 250 mg/kg oral): 7.7 ± 0.33 *^+ × 10^9/L
DPPH Scavenging, IC50 (DPPH assay): 18.69 * mg/mL
activity of GPx in liver [6]: restored the control values of GPx; also recorded: did not statistically significantly alter
